Values of other authors in patent US8323615B2, “Methods of processing multi-phasic dispersions” (Baxter International Inc., priority 2008, dated 2012).
Counter-ions that a name gives are not always drawn. Like-named read-outs stand apart in the source and are kept apart here.

Tests used:
[1] = test system: rats; conditions: for LD50, cells marked "I": value followed by undefined mark "I"
[2] = ambient temperature such as 20-25° C.
[3] = rats, oral, all at once (acute toxicity), minimal amount reported in the literature

**Q.** Which LD50 [1, 3] does the source give for `OCC(F)(F)F` [2,2,2-trifluoroethanol] here?
**A.** Its LD50 is 0.24 g/kg body weight.

**Q.** What does the source list for `ClC=C(Cl)Cl` [1,1,2-trichloroethylene]?
**A.** Sol. (solubility of water in the liquid) ([2]; unit not given): 0.11 g/100 g; LD50 [1, 3]: 2.4 g/kg body weight

**Q.** With `FC(F)(F)C(F)(F)C(F)(F)C(F)(F)C(F)(F)N(C(F)(F)C(F)(F)C(F)(F)C(F)(F)C(F)(F)F)C(F)(F)C(F)(F)C(F)(F)C(F)(F)C(F)(F)F` [Fluorinert ® FC-70, perfluorotriamylamine] as the compound, how does the “Sol. (solubility of water in the liquid)” value ([2]; parts per million by weight) read?
**A.** Its value is 8 ppm.

**Q.** What about the LD50 [1, 3] of the same compound?
**A.** Its LD50 is “NTO”.

**Q.** With `O=C1OCCO1` [ethylene carbonate] as the compound, how does the LD50 [1, 3] read?
**A.** The LD50 was 10 g/kg body weight.

**Q.** Which results are given for `FC(F)CC(F)(F)F` [Genesolv ® S-F, 1,1,1,3,3-pentafluoropropane]?
**A.** Sol. (solubility of water in the liquid) ([2]; parts per million by weight): 1600 ppm; LD50, cells marked "I" [1]: >200 I g/kg body weight

**Q.** Which “Sol. (solubility of water in the liquid), in words” value [2] does the source give for `COC(=O)C(C)O` (stereo not drawn) [lactic acid, methyl ester] here?
**A.** Its value is “decomp”.

**Q.** And the LD50 [1, 3]?
**A.** The LD50 was 2 g/kg body weight.

**Q.** With `CC(F)(Cl)Cl` [Genesolv ® 2000 HFC-141b] as the compound, how does the LD50 [1, 3] read?
**A.** The LD50 was over 5 g/kg body weight.

**Q.** For `FC(F)(F)C(F)(F)C(F)(F)C(F)(F)C(F)(F)C(F)(F)F` [PF-5060 & PF-5060DL], which LD50 [1, 3] is on record?
**A.** The LD50 was over 5 g/kg body weight.

**Q.** With `Fc1cc(F)c(F)c(F)c1F` [pentafluorobenzene] as the compound, how does the LD50 ([1]; rat, in vivo, po) read?
**A.** The LD50 was 2 g/kg body weight.

**Q.** With trimethylene glycol as the compound, how does the LD50 ([1]; rat, in vivo, po) read?
**A.** The LD50 was 4.77 g/kg body weight.

**Q.** Which “Sol. (solubility of water in the liquid)” value ([2]; in %) does the source give for `COCCOCCO` [diethylene glycol methyl ether] here?
**A.** The value was 100%.

**Q.** Which “Sol. (solubility of water in the liquid)” value ([2]; unit not given) does the source give for `CC(Cl)(Cl)Cl` [1,1,1-trichloroethane] here?
**A.** Its value is 0.15 g/100 g.

**Q.** And the “Sol. (solubility of water in the liquid)” value ([2]; parts per million by weight)?
**A.** Its value is 170 ppm.

**Q.** What about the LD50 [1, 3] of the same compound?
**A.** The LD50 was 9.6 g/kg body weight.

**Q.** And the LD50 ([1]; rats, oral, all at once (acute toxicity), minimal amount reported in the literature, listed as 1,1,1-TCA)?
**A.** The LD50 was 16 g/kg body weight.

**Q.** With `CCOC(F)(C(F)(F)C(F)(F)C(F)(F)F)C(F)(C(F)(F)F)C(F)(F)F` (stereo not drawn) [Novec ™ HFE-7500, 2-trifluoromethyl-3-ethoxydodecafluorohexane] as the compound, how does the LD50 [1, 3] read?
**A.** Its LD50 is over 2 g/kg body weight.

**Q.** Which LD50 ([1]; rat, in vivo, po) does the source give for `O=Cc1ccco1` [Furfural] here?
**A.** The LD50 was 0.05 g/kg body weight.

**Q.** Which “Sol. (solubility of water in the liquid)” value ([2]; in %) does the source give for `S=C=S` [carbon disulfide] here?
**A.** Its value is under 1%.

**Q.** What about the LD50 ([1]; rat, in vivo, po) of the same compound?
**A.** Its LD50 is 3.2 g/kg body weight.

**Q.** Which results are given for `ClC(Cl)(Cl)Cl` [carbon tetrachloride]?
**A.** Sol. (solubility of water in the liquid) ([2]; unit not given): 0.05 g/100 g; LD50 [1, 3]: 2.3 g/kg body weight

**Q.** With `c1ccc(Oc2ccccc2)cc1` [diphenyl ether] as the compound, how does the LD50 [1, 3] read?
**A.** The LD50 was 3.37 g/kg body weight.

**Q.** Which LD50 [1, 3] does the source give for `NC=O` [Formamide] here?
**A.** The LD50 was 5.5 g/kg body weight.

**Q.** Which results are given for `ClCCl` [methylene chloride]?
**A.** Sol. (solubility of water in the liquid) ([2]; unit not given): 1.32 g/100 g; LD50 [1, 3]: 1.6 g/kg body weight

**Q.** What does the source list for `FC(F)(F)C(F)(F)C(F)(F)C(F)(F)C(F)(F)C(F)(F)F` [Perfluorohexane]?
**A.** Sol. (solubility of water in the liquid) ([2]; unit not given): 0.03 g/100 g; Sol. (solubility of water in the liquid) ([2]; parts per million by weight): 10 ppm; LD50 [1, 3]: 5 g/kg body weight

**Q.** With `FC(C(F)C(F)(F)C(F)(F)F)C(F)(F)F` (stereo not drawn) [HFC-4310mee] as the compound, how does the “Sol. (solubility of water in the liquid)” value ([2]; parts per million by weight) read?
**A.** The value was 400 ppm.

**Q.** And the “LD50, cells marked "I"” value [1]?
**A.** Its value is 11 I g/kg body weight.

**Q.** What does the source list for `OCCOCc1ccccc1` [ethylene glycol monobenzyl ether]?
**A.** Sol. (solubility of water in the liquid) ([2]; unit not given): 4 g/100 g; LD50 [1, 3]: 1.19 g/kg body weight

**Q.** For `FC(F)(Cl)C(F)(F)Cl` [1,2-dichlorotetrafluoroethane], which “Sol. (solubility of water in the liquid)” value ([2]; unit not given) is on record?
**A.** Its value is 0.13 g/100 g.

**Q.** What about the LD50 [1, 3] of the same compound?
**A.** Its LD50 is 2.25 g/kg body weight.

**Q.** Which LD50 [1, 3] does the source give for `C[S+](C)[O-]` [DMSO, dimethylsulfoxide] here?
**A.** The LD50 was 18 g/kg body weight.

**Q.** What does the source list for `CC(O)C(=O)O` (stereo not drawn) [lactic acid]?
**A.** LD50 ([1]; rat, in vivo, po): 3.7, 3.5 g/kg body weight; LD50 [1, 3]: 3.7, 3.5 g/kg body weight

**Q.** Which “Sol. (solubility of water in the liquid)” value ([2]; parts per million by weight) does the source give for `FC(F)(F)C(F)(F)C(F)(F)C(F)(F)N(C(F)(F)C(F)(F)C(F)(F)C(F)(F)F)C(F)(F)C(F)(F)C(F)(F)C(F)(F)F` [Fluorinert ® FC-43, perfluorotributylamine] here?
**A.** Its value is 7 ppm.

**Q.** And the LD50 [1, 3]?
**A.** The LD50 was 10 g/kg body weight.

**Q.** For `C1OCOCO1` [Trioxane], which “Sol. (solubility of water in the liquid), in words” value [2] is on record?
**A.** The value was “soluble”.

**Q.** What about the LD50 [1, 3] of the same compound?
**A.** Its LD50 is 3.2 g/kg body weight.

**Q.** Which LD50 [1, 3] does the source give for `O=S1(=O)CCCC1` [Sulfolane] here?
**A.** The LD50 was 1.94 g/kg body weight.

**Q.** With `CCOC(F)(F)C(F)(F)C(F)(F)C(F)(F)F` [Novec ™ HFE-7200, ethoxynonafluorobutane] as the compound, how does the “Sol. (solubility of water in the liquid)” value ([2]; parts per million by weight) read?
**A.** The value was 92 ppm.

**Q.** What about the LD50 [1, 3] of the same compound?
**A.** Its LD50 is over 5 g/kg body weight.

**Q.** For `COC(F)(F)C(F)(F)C(F)(F)F` [Novec ™ HFE-7000, 1-methoxyheptafluoropropane], which “Sol. (solubility of water in the liquid)” value ([2]; parts per million by weight) is on record?
**A.** Its value is 60 ppm.

**Q.** And the LD50 [1, 3]?
**A.** Its LD50 is over 2 g/kg body weight.

**Q.** For `O=C1CCCO1` [gamma-butyrolactone], which LD50 ([1]; rat, in vivo, po) is on record?
**A.** The LD50 was 1.54 g/kg body weight.

**Q.** With `CC1COC(=O)O1` (stereo not drawn) [propylene carbonate] as the compound, how does the “Sol. (solubility of water in the liquid)” value ([2]; in %) read?
**A.** The value was 23%.

**Q.** And the LD50 [1, 3]?
**A.** Its LD50 is 29 g/kg body weight.

**Q.** Which LD50 ([1]; rat, in vivo, po) does the source give for `CCOC(=O)C(=O)OCC` [diethyl oxalate] here?
**A.** Its LD50 is 0.4 g/kg body weight.

**Q.** Which “LD50, cells marked "I"” value [1] does the source give for `O=C(C(F)(F)C(F)(F)F)C(F)(C(F)(F)F)C(F)(F)F` [Novec ™ 1230, dodecafluoro-2-methylpentan-3-one] here?
**A.** Its value is over 100 I g/kg body weight.

**Q.** Which “Sol. (solubility of water in the liquid)” value ([2]; in %) does the source give for `CN1CCCC1=O` [N-methylpyrrolidone] here?
**A.** Its value is 100%.

**Q.** And the LD50 [1, 3]?
**A.** Its LD50 is 4.15 g/kg body weight.

**Q.** For `OCC(O)CO` [Glycerol], which LD50 ([1]; rat, in vivo, po) is on record?
**A.** The LD50 was 13 g/kg body weight.

**Q.** Which results are given for “tetrahydrofurfuryl alcohol polyethyleneglycol ether [Glycofurol]”?
**A.** Sol. (solubility of water in the liquid) ([2]; in %): >50%; LD50 [1, 3]: 7.8 g/kg body weight

**Q.** Which results are given for “methoxynonafluorobutane [Novec ™ HFE-7100]”?
**A.** Sol. (solubility of water in the liquid) ([2]; parts per million by weight): 95 ppm; LD50 [1, 3]: >5 g/kg body weight

**Q.** Which LD50 ([1]; rat, in vivo, po) does the source give for `OCc1ccco1` [furfuryl alcohol] here?
**A.** The LD50 was 0.275 g/kg body weight.

**Q.** For `CC(O)CO` (stereo not drawn) [propylene glycol], which LD50 [1, 3] is on record?
**A.** The LD50 was 22 g/kg body weight.

**Q.** For `OCCOCCO` [diethylene glycol], which LD50 [1, 3] is on record?
**A.** Its LD50 is 13 g/kg body weight.

**Q.** With `OCC(F)(F)C(F)(F)F` [pentafluoropropyl alcohol] as the compound, how does the “Sol. (solubility of water in the liquid), in words” value [2] read?
**A.** The value was “soluble”.

**Q.** And the LD50 [1, 3]?
**A.** The LD50 was 1 g/kg body weight.

**Q.** With `FCC(F)(F)F` [Genetron ® HFC-134a] as the compound, how does the “Sol. (solubility of water in the liquid)” value ([2]; in %) read?
**A.** Its value is 0.11%.

**Q.** And the “LD50, cells marked "I"” value [1]?
**A.** Its value is 62 I g/kg body weight.
